“And” between values parts separate entries of the source, which are not always exact repeats. Equal values may be shown once. Where a name gives a salt, the structure may show the parent alone.
Target: T1, hB2 receptor (Homo sapiens, UniProt P30411)
T1 construct: host or cells: CHO-K1
T1 sequence (P30411 1-391): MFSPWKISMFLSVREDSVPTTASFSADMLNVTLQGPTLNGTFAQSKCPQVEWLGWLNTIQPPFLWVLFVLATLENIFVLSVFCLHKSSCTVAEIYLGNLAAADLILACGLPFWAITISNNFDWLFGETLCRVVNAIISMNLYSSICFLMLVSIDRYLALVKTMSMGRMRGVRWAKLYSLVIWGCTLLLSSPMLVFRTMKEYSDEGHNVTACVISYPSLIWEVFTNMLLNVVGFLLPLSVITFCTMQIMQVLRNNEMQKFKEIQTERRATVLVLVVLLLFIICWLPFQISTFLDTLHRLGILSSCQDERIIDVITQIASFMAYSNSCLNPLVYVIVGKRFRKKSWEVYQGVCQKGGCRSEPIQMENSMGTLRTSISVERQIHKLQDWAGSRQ
Assay: In vitro Assay of hB2 Receptor Function using Calcium Flux
Assay type: cell-based
Conditions: recombinant CHO cells, antagonist IC50 against agonist at EC80
Protocol: In vitro Assay of hB2 Receptor Function using Calcium Flux The intracellular calcium flux induced by hB2 receptor activation was analyzed using an hB2 recombinant cell line (CHO-K1) purchased from PerkinElmer (Catalog Number: RBHB2C000EA) on a fluorometric imaging plate reader (FLIPR). […] Culture medium was changed every other day. 24 h prior to the FLIPR assay, the hB2/CHO cells were washed once with PBS (Invitrogen) and 10 mL of Versene (1:5000, Invitrogen, Cat# 15040-066) was added to each flask. After 5 min incubation at 37° C., Versene was removed and cells were detached from the flask and resuspended in culture medium. Cells were counted and 25,000 cells/well were plated in 96-well black-sided clear bottom assay plates (Costar #3904). Cells were incubated in a 37° C. CO2 incubator overnight. The media was aspirated from the cells and replaced with 65 μL of dye-loading buffer. The loading buffer was prepared by diluting a stock solution of 0.5 mM Fluo-4 AM (Molecular Probes, dissolved in DMSO containing 10% [w/v] pluronic acid) to a concentration of 1 μM in Clear Dulbecco's Modified Eagle Medium (DMEM) containing 0.1% BSA, 20 mM HEPES, and 2.5 mM probenecid. The cells were dye-loaded for 1 h at RT. The excess dye was removed by washing the cells 2× with assay buffer. The assay buffer consists of Hank's Balanced Salt Solution (HBSS) containing 20 mM HEPES, 0.1% BSA, and 2.5 mM probenecid. After the wash cycles, a volume of 100 μL was left in each well, and the plate was ready to be assayed in the FLIPR System. […] The cell plate and the compound plates were loaded onto the FLIPR and during the assay, fluorescence readings are taken simultaneously from all 96 wells of the cell plate. Ten 1-second readings were taken to establish a stable baseline for each well, then 25 μL from the B1 antagonist plate was rapidly (50 μL/sec.) added. The fluorescence signal was measured in 1-second (1 min) followed by 6-second (2 min) intervals for a total of 3 min to determine if there is any agonist activity with the compounds.

Question: “1,1-dimethylethyl (3R)-3-((((2R)-1-((4-methylphenyl)sulfonyl)-3-oxo-1,2,3,4-tetrahydro-2-pyrazinyl)acetyl)amino)-1-piperidinecarboxylate; and 1,1-dimethylethyl (3S)-3-((((2R)-1-((4-methylphenyl)sulfonyl)-3-oxo-1,2,3,4-tetrahydro-2-pyrazinyl)acetyl)amino)-1-piperidinecarboxylate [T-1-8]” was tested. Which IC50 did it give?
Answer: 170 nM

Question: Which IC50 does the source give for “2-((2R)-1-((2,3-dichlorophenyl)sulfonyl)-3-oxo-1,2,3,4-tetrahydro-2-pyrazinyl)-N-((4S)-3,3-dimethyl-4-piperidinyl)acetamide; and 2-((2R)-1-((2,3-dichlorophenyl)sulfonyl)-3-oxo-1,2,3,4-tetrahydro-2-pyrazinyl)-N-((4R)-3,3-dimethyl-4-piperidinyl)acetamide [T-1-47]” here?
Answer: 0.8 nM

Question: For “2-((2R)-1-((4-chloro-2,5-dimethylphenyl)sulfonyl)-3-oxo-1,2,3,4-tetrahydro-2-pyrazinyl)-N-((4S)-3,3-dimethyl-4-piperidinyl)acetamide; and 2-((2R)-1-((4-chloro-2,5-dimethylphenyl)sulfonyl)-3-oxo-1,2,3,4-tetrahydro-2-pyrazinyl)-N-((4R)-3,3-dimethyl-4-piperidinyl)acetamide [T-1-48]”, which IC50 is on record?
Answer: 400 nM

Question: With “2-((2R)-1-((4-methylphenyl)sulfonyl)-3-oxo-1,2,3,4-tetrahydro-2-pyrazinyl)-N-((1R,2R,4R)-1,7,7-trimethylbicyclo[2.2.1]hept-2-yl)acetamide; and 2-((2R)-1-((4-methylphenyl)sulfonyl)-3-oxo-1,2,3,4-tetrahydro-2-pyrazinyl)-N-((1R,2S,4R)-1,7,7-trimethylbicyclo[2.2.1]hept-2-yl)acetamide [T-1-2]” as the compound, how does the IC50 read?
Answer: 92 nM

Question: How did the IC50 turn out when Cc1ccc(S(=O)(=O)N2C=CNC(=O)[C@H]2CC(=O)NC2CCN(C(=O)OC(C)(C)C)CC2(C)C)cc1 (mixture of isomers) [T-1-15, 1,1-dimethylethyl (4R)-3,3-dimethyl-4-((((2R)-1-((4-methylphenyl)sulfonyl)-3-oxo-1,2,3,4-tetrahydro-2-pyrazinyl)acetyl)amino)-1-piperidinecarboxylate; and 1,1-dimethylethyl (4S)-3,3-dimethyl-4-((((2R)-1-((4-methylphenyl)sulfonyl)-3-oxo-1,2,3,4-tetrahydro-2-pyrazinyl)acetyl)amino)-1-piperidinecarboxylate] was run?
Answer: 150 nM and 430 nM

Question: How did the IC50 turn out when Cc1ccc(S(=O)(=O)N2C=CNC(=O)[C@H]2CC(=O)NC2CCN(Cc3ccncc3)CC2(C)C)cc1 (mixture of isomers) [T-1-25, N-((4R)-3,3-dimethyl-1-(4-pyridinylmethyl)-4-piperidinyl)-2-((2R)-1-((4-methylphenyl)sulfonyl)-3-oxo-1,2,3,4-tetrahydro-2-pyrazinyl)acetamide; and N-((4S)-3,3-dimethyl-1-(4-pyridinylmethyl)-4-piperidinyl)-2-((2R)-1-((4-methyl-phenyl)sulfonyl)-3-oxo-1,2,3,4-tetrahydro-2-pyrazinyl)acetamide] was run?
Answer: 1.21 nM

Question: For Cc1ccc(S(=O)(=O)N2C=CNC(=O)[C@H]2CC(=O)NC2CCC(N3CCC(F)CC3)CC2(C)C)cc1 (mixture of isomers) [T-1-42], which IC50 is on record?
Answer: 1980 nM

Question: Cc1ccc(S(=O)(=O)N2C=CNC(=O)[C@H]2CC(=O)NC2CCC(NC3CC3)CC2(C)C)cc1 (mixture of isomers) [T-1-43] was tested. Which IC50 did it give?
Answer: 14 nM

Question: Which IC50 does the source give for Cc1ccc(S(=O)(=O)N2C=CNC(=O)[C@H]2CC(=O)NC2CCC(NCC(C)(C)C)CC2(C)C)cc1 (mixture of isomers) [T-1-44] here?
Answer: 2300 nM

Question: How did the IC50 turn out when Cc1ccc(S(=O)(=O)N2C=CNC(=O)[C@H]2CC(=O)NC2CCC(N3CCCC3)CC2(C)C)cc1 (mixture of isomers) [T-1-50] was run?
Answer: 1.3 nM

Question: Which IC50 does the source give for Cc1ccc(S(=O)(=O)N2C=CNC(=O)[C@H]2CC(=O)N[C@@H]2CCCC[C@H]2C(C)(C)O)cc1 (mixture of isomers) [T-1-65, N-((1RS,2RS)-2-(1-hydroxy-1-methylethyl)cyclohexyl)-2-((2R)-1-((4-methylphenyl)sulfonyl)-3-oxo-1,2,3,4-tetrahydro-2-pyrazinyl)acetamide] here?
Answer: 2700 nM

Question: Cc1ccc(S(=O)(=O)N2C=CNC(=O)[C@H]2CC(=O)NC2CC(=O)OC(C)(C)C2)cc1 (mixture of isomers) [T-1-67, N-((4RS)-2,2-dimethyl-6-oxotetrahydro-2H-pyran-4-yl)-2-((2R)-1-((4-methylphenyl)sulfonyl)-3-oxo-1,2,3,4-tetrahydro-2-pyrazinyl)acetamide] was tested. Which IC50 did it give?
Answer: 2200 nM

Question: Cc1ccc(S(=O)(=O)N2C=CNC(=O)[C@H]2CC(=O)NC2CCC3(CC2(C)C)OCCO3)cc1 (mixture of isomers) [T-1-111, N-((8RS)-7,7-dimethyl-1,4-dioxaspiro[4.5]dec-8-yl)-2-((2R)-1-((4-methylphenyl)-sulfonyl)-3-oxo-1,2,3,4-tetrahydro-2-pyrazinyl)acetamide] was tested. Which IC50 did it give?
Answer: 1.4 nM

Question: Cc1cc(S(=O)(=O)N2C=CNC(=O)[C@H]2CC(=O)N2CCCC(N(C)C3CC3)CC2)c(C)cc1Cl (mixture of isomers) [T-3-28, (3R)-4-((4-chloro-2,5-dimethylphenyl)sulfonyl)-3-(2-((4R/S)-4-(cyclopropyl(methyl)amino)-1-azepanyl)-2-oxoethyl)-3,4-dihydro-2(1H)-pyrazinone trifluoroacetic acid salt] was tested. Which IC50 did it give?
Answer: 32 nM

Question: Cc1cc(S(=O)(=O)N2C=CNC(=O)[C@H]2CC(=O)N2CCC(N3CCCC3)C(C)(C)C2)c(C)cc1Cl (mixture of isomers) [T-3-30, (3R)-4-((4-chloro-2,5-dimethylphenyl)sulfonyl)-3-(2-((4R/S)-3,3-dimethyl-4-(1-pyrrolidinyl)-1-piperidinyl)-2-oxoethyl)-3,4-dihydro-2(1H)-pyrazinone] was tested. Which IC50 did it give?
Answer: 61 nM

Question: With Cc1ccc(S(=O)(=O)N2C=CNC(=O)[C@H]2CC(=O)NC2CCN(c3ccccc3)CC2)cc1 [T-1-3, 2-((2R)-1-((4-methylphenyl)sulfonyl)-3-oxo-1,2,3,4-tetrahydro-2-pyrazinyl)-N-(1-phenyl-4-piperidinyl)acetamide] as the compound, how does the IC50 read?
Answer: 21 nM

Question: How did the IC50 turn out when Cc1ccc(S(=O)(=O)N2C=CNC(=O)[C@H]2CC(=O)NC2CCN(c3ncccn3)CC2)cc1 [T-1-7, 2-((2R)-1-((4-methylphenyl)sulfonyl)-3-oxo-1,2,3,4-tetrahydro-2-pyrazinyl)-N-(1-(2-pyrimidinyl)-4-piperidinyl)acetamide] was run?
Answer: 700 nM

Question: How did the IC50 turn out when CC(=O)N1CCC(NC(=O)C[C@@H]2C(=O)NC=CN2S(=O)(=O)c2ccc(C)cc2)C(C)(C)C1 (stereo partly drawn) [T-1-18, N-(1-acetyl-3,3-dimethyl-4-piperidinyl)-2-((2R)-1-((4-methylphenyl)sulfonyl)-3-oxo-1,2,3,4-tetrahydro-2-pyrazinyl)acetamide] was run?
Answer: 15 nM

Question: CO[C@H]1CC[C@H](NC(=O)C[C@@H]2C(=O)NC=CN2S(=O)(=O)c2ccc(C)cc2)CC1 [T-1-30, N-(trans-4-(methyloxy)cyclohexyl)-2-((2R)-1-((4-methylphenyl)sulfonyl)-3-oxo-1,2,3,4-tetrahydro-2-pyrazinyl)acetamide] was tested. Which IC50 did it give?
Answer: 190 nM

Question: Which IC50 does the source give for Cc1ccc(S(=O)(=O)N2C=CNC(=O)[C@H]2CC(=O)N[C@H]2CC[C@@H](N)CC2)cc1 [T-1-31, N-(cis-4-aminocyclohexyl)-2-((2R)-1-((4-methylphenyl)sulfonyl)-3-oxo-1,2,3,4-tetrahydro-2-pyrazinyl)acetamide] here?
Answer: 47 nM
